Experimental data as given in patent US12704502B2, “Methods and systems for determining metabolic poise and capacity of living cells” (AGILENT TECHNOLOGIES, INC., priority 2021, dated 2026).

Legend:
[1] = test system: Human Peripheral Blood CD4+ T cells
Protocol: (§1) Uncoupled respiration measurements were measured in adherent cells epithelioid carcinoma Panc-1 cells (ATCC, CRL-1469) with FCCP. Cells were cultured in Dulbecco's Modified Eagle's Medium (DMEM) supplemented with 10% FBS at 37 C, 5% CO2 incubator according to supplier information. Day before the assay, cells were detached using Trypsin-EDTA solution and seeded in XFe96 cell culture miniplates (Agilent) at 10,000 cells/well. Cells were incubated for 18 hr at 37 C, 5% CO2 incubator. To measure OCR, cells were washed, and cell culture medium was replaced by XF DMEM pH 7.4 supplemented with 10 mM glucose, 2 mM glutamine and 1 mM pyruvate.

[2] = test system: epithelioid carcinoma Panc-1 cells; settings: 2 μM FCCP, FIGS. 1A-1C
Protocol: as §1

[3] = test system: Human Peripheral Blood NK cells; settings: 1.5, 2, 2.5 or 3 μM, FIGS. 12A-12B
Protocol: NK cells were cultured as described herein (e.g., in Example 1).

FCCP
OCR after the rotenone+antimycin A injection ([1]; T cells, FIGS. 2B, 3B): overestimation of OCR
stability of uncoupled respiration during the 3 min of the measurement ([1]; T cells, after oligomycin, FIGS. 2A, 2C, 3A, 3C): inconsistent uncoupled respiration
maximal respiration in titration of uncoupler ([1]; naïve CD4+ T cells, 0.5, 1, 1.5, 2, 2.5 or 3 μM, FIGS. 4A-4B): not as robust nor was there an increase in a dose-dependent manner
oxygen consumption on addition of uncoupler [2]: robust increase in oxygen consumption
maximal respiration in titration of uncoupler [3]: not as robust
